In ChEMBL document CHEMBL1201862, “PubChem BioAssay data set” (2004):
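Cells were grown in 96-well plates and exposed to each compound for 48 hours at five concentrations; endpoints were interpolated linearly between bracketing concentrations, or set to the highest concentration if not reached. The concentration for 50% growth inhibition is given as GI50.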 Activity calls are given as the source filed them. No stated cut-off is given here; in the data, active = GI50 up to about 1.1 µM and inactive = higher.

Tests used:
Assay in all cases: inhibition of tumour cell growth, NCI panel, 48 h
ACHN = system: ACHN
CAKI-1 = system: CAKI-1
DU-145 = system: DU-145
HCC 2998 = system: HCC 2998
HCT-116 = system: HCT-116
HCT-15 = system: HCT-15
HL-60 = system: HL-60
MDA-MB-231 = system: MDA-MB-231
MDA-MB-435 = system: MDA-MB-435
MDA-N = system: MDA-N
Malme-3M = system: Malme-3M
NCI-H522 = system: NCI-H522
OVCAR-4 = system: OVCAR-4
OVCAR-5 = system: OVCAR-5
RPMI-8226 = system: RPMI-8226
SK-MEL-2 = system: SK-MEL-2
SNB-75 = system: SNB-75
SR = system: SR
SW-620 = system: SW-620
U-251 = system: U-251

Compound | GI50 (ACHN) | GI50 (CAKI-1) | GI50 (DU-145) | GI50 (HCC 2998) | GI50 (HCT-116) | GI50 (HCT-15) [µM] | GI50 (HL-60) | GI50 (MDA-MB-231) | GI50 (MDA-MB-435) | GI50 (MDA-N) | GI50 (Malme-3M) | GI50 (NCI-H522) | GI50 (OVCAR-4) | GI50 (OVCAR-5) | GI50 (RPMI-8226) | GI50 (SK-MEL-2) | GI50 (SNB-75) | GI50 (SR) | GI50 (SW-620) | GI50 (U-251)
CC(C)=NNc1ncnc2[nH]cnc12 | 5.7 µM (inactive) | 3.66 µM (inactive) | 3.85 µM (inactive) | 5.04 µM (inactive) | 3.71 µM (inactive) | 6.01 | 3.71 µM (inactive) | 6.95 µM (inactive) | 6.87 µM (inactive) | 8.79 µM (inactive) | 49.7 µM (inactive) | 2.86 µM (inactive) | 9.95 µM (inactive) | 4.65 µM (inactive) | 4.83 µM (inactive) | 3.82 µM (inactive) | 18.2 µM (inactive) | 4.69 µM (inactive) | 11.9 µM (inactive) | 20.4 µM (inactive)
CN(O)C(=S)c1ccccc1 | 4.42 µM (inactive) | 4.25 µM (inactive) | 41.2 µM (inactive) | 6.34 µM (inactive) | 1.49 µM (inactive) | 2.47 | 0.233 µM (active) | 9.33 µM (inactive) | 3.38 µM (inactive) | 6.95 µM (inactive) | 7.82 µM (inactive) | 0.0944 µM (active) | 1.88 µM (inactive) | 78.5 µM (inactive) | 0.325 µM (active) | 5.07 µM (inactive) | 4.31 µM (inactive) | 0.178 µM (active) | 1.25 µM (inactive) | 3.18 µM (inactive)
NNc1nc2ccccc2s1 | > 100 µM (inactive) | > 100 µM (inactive) | > 100 µM (inactive) | > 100 µM (inactive) | > 100 µM (inactive) | > 100 | > 100 µM (inactive) | > 100 µM (inactive) | > 100 µM (inactive) | > 100 µM (inactive) | > 100 µM (inactive) | > 100 µM (inactive) | > 100 µM (inactive) | > 100 µM (inactive) | 72.8 µM (inactive) | > 100 µM (inactive) | > 100 µM (inactive) | 53.2 µM (inactive) | > 100 µM (inactive) | > 100 µM (inactive)
O=S1(=O)c2ccccc2NC(=S)N1c1ccccc1 | 70.6 µM (inactive) | > 72.8 µM (inactive) | 87.1 µM (inactive) | 53.5 µM (inactive) | 45.3 µM (inactive) | 75 | 32 µM (inactive) | > 57.8 µM (inactive) | 50.1 µM (inactive) | 36 µM (inactive) | 46.1 µM (inactive) | 21.3 µM (inactive) | 53.3 µM (inactive) | 92.9 µM (inactive) | > 59.2 µM (inactive) | 73.5 µM (inactive) | 2.61 µM (inactive) | 44.8 µM (inactive) | > 100 µM (inactive) | > 72.3 µM (inactive)
C=C1CCCC(C)(C)C1CCC1(C)CCC(C(C)C(=O)OC)OO1 (stereo not given) | 1.27 µM (inactive) | 0.383 µM (active) | 4.35 µM (inactive) | 4.37 µM (inactive) | 8.45 µM (inactive) | 15.5 | 2.21 µM (inactive) | 9.08 µM (inactive) | 4.05 µM (inactive) | 3.73 µM (inactive) | > 22.9 µM (inactive) | 3.34 µM (inactive) | 4.9 µM (inactive) | 6.75 µM (inactive) | 5.56 µM (inactive) | 10.8 µM (inactive) | 3.15 µM (inactive) | 3.02 µM (inactive) | 7.6 µM (inactive) | 2.94 µM (inactive)
O=c1c2ccccc2[se]n1-c1cccnc1 | 28.1 µM (inactive) | 42.3 µM (inactive) | 18.2 µM (inactive) | 11.4 µM (inactive) | 30.5 µM (inactive) | 23.6 | 30.1 µM (inactive) | 25.1 µM (inactive) | 22.2 µM (inactive) | 22.6 µM (inactive) | 21.7 µM (inactive) | 20.7 µM (inactive) | 36.2 µM (inactive) | 46.2 µM (inactive) | 34.5 µM (inactive) | 19.3 µM (inactive) | 18.1 µM (inactive) | 34.7 µM (inactive) | 29 µM (inactive) | 26.7 µM (inactive)
CC(C)(C)N(Cc1ccccc1)C(=O)/C=C\[S+]([O-])c1ccccc1 (stereo not given) | 4.71 µM (inactive) | 5.85 µM (inactive) | 3.85 µM (inactive) | 6.28 µM (inactive) | 2.43 µM (inactive) | 3.75 | 2.1 µM (inactive) | 3.27 µM (inactive) | 2.65 µM (inactive) | 2.16 µM (inactive) | 1.69 µM (inactive) | 1.19 µM (inactive) | 2.32 µM (inactive) | 13.6 µM (inactive) | 1.84 µM (inactive) | 2.8 µM (inactive) | 10.9 µM (inactive) | 1.58 µM (inactive) | 2.15 µM (inactive) | 3.88 µM (inactive)
CC/C(Cl)=N\OC(=O)Nc1ccc(OC)c(C)c1 | 8.93 µM (inactive) | 0.832 µM (active) | 28 µM (inactive) | 19.6 µM (inactive) | 12.6 µM (inactive) | 6.34 | 3.5 µM (inactive) | 30.6 µM (inactive) | 34.2 µM (inactive) | 18.7 µM (inactive) | 11.4 µM (inactive) | 2.21 µM (inactive) | 16.2 µM (inactive) | 30.5 µM (inactive) | 11.9 µM (inactive) | 19 µM (inactive) | 80 µM (inactive) | 3.04 µM (inactive) | 24.3 µM (inactive) | 45.3 µM (inactive)
CC(=O)c1ccc(Nc2c3ccccc3nc3occc23)cc1 | < 0.01 µM (active) | < 0.01 µM (active) | 0.0213 µM (active) | 0.0498 µM (active) | < 0.01 µM (active) | < 0.01 | < 0.01 µM (active) | 0.0194 µM (active) | < 0.01 µM (active) | < 0.01 µM (active) | < 0.01 µM (active) | < 0.01 µM (active) | < 0.0246 µM (active) | 0.327 µM (active) | < 0.01 µM (active) | 0.0108 µM (active) | 0.0109 µM (active) | < 0.01 µM (active) | < 0.01 µM (active) | < 0.0124 µM (active)
CN(C)CCNC(=O)c1cccc2nc3c(nc12)-c1ccccc1C3=O | 4.78 µM (inactive) | 13.6 µM (inactive) | 29.9 µM (inactive) | 15 µM (inactive) | 12.7 µM (inactive) | 10.3 | 6.3 µM (inactive) | 7.89 µM (inactive) | 14.8 µM (inactive) | 9.89 µM (inactive) | 9.95 µM (inactive) | 13.5 µM (inactive) | 20.8 µM (inactive) | 24.8 µM (inactive) | 7.38 µM (inactive) | 17 µM (inactive) | 13.8 µM (inactive) | 1.14 µM (inactive) | 6.43 µM (inactive) | 13.4 µM (inactive)
